Common to all, as to assay type: biochemical
One test has as its target PI3Kγ (Homo sapiens, UniProt P48736). Briefly: In vitro inhibition of PI3Kγ. Conditions: Table 10B, inhibitory activity, unit inferred; read-out: PI3Kγ.
Another test deals with PI3Kβ (Homo sapiens, UniProt P42338). Briefly: In vitro inhibition of PI3Kβ. Conditions: Table 10B, inhibitory activity, unit inferred; read-out: PI3Kβ.
A further test concerns the target mTOR (Homo sapiens, UniProt P42345). Nature of the test: In vitro inhibition of mTOR. Conditions: Table 10B, inhibitory activity, unit inferred.
The target in a further test is PI3Kα (Homo sapiens, UniProt P42336). Briefly: In vitro inhibition of PI3Kα. The note with it: Table 10B, inhibitory activity, unit inferred; read-out: PI3Kα.
PI3Kα, sequence (P42336 whole entry, species assumed): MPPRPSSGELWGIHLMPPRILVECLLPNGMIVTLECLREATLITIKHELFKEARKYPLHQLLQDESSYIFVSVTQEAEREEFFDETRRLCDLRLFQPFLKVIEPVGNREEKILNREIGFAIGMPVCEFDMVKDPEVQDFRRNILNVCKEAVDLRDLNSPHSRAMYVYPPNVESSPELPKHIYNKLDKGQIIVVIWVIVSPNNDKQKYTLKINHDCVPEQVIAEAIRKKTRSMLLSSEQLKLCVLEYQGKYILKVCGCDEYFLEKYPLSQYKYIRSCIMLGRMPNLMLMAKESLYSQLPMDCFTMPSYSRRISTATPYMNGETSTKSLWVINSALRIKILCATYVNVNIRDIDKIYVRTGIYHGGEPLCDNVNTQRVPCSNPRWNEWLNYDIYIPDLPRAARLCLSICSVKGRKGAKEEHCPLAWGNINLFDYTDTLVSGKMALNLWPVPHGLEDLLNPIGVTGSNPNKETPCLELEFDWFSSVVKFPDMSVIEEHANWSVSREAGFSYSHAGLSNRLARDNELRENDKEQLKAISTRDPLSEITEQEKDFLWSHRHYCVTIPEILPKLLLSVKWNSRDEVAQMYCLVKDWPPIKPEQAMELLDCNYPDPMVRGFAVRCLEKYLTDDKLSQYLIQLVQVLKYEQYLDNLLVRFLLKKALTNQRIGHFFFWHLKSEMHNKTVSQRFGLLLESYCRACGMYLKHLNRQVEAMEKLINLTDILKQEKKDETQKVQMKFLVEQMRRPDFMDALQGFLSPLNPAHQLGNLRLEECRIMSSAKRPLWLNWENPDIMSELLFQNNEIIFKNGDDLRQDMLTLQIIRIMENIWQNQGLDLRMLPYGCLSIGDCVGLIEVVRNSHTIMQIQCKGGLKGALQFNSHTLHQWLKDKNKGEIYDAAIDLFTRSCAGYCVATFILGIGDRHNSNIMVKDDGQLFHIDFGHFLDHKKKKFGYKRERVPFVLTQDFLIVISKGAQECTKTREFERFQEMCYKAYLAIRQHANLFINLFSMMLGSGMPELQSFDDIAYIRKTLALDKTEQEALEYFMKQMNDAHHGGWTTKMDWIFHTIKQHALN
PI3Kα, sequence (P27986 whole entry partner, species assumed): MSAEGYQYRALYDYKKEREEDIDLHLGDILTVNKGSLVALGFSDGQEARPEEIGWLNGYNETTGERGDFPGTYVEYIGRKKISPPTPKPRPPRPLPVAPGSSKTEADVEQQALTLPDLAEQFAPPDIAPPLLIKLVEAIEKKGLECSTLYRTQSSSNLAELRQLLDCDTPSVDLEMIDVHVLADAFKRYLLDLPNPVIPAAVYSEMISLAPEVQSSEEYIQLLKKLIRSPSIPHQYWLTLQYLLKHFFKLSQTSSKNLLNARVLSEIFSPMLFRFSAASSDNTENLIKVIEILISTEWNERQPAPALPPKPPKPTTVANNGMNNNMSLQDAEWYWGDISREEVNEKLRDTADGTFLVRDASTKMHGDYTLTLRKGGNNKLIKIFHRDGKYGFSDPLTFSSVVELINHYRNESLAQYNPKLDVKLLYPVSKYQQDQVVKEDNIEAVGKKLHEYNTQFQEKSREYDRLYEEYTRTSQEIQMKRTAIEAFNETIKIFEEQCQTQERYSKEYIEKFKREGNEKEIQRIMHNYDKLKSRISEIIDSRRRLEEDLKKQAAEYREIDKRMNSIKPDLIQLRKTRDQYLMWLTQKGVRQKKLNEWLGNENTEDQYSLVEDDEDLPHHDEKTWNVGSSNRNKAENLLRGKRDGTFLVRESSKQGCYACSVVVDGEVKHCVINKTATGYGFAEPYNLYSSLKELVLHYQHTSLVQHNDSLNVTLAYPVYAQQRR
Another test has as its target PI3Kδ (Homo sapiens, UniProt O00329). Nature of the test: In vitro inhibition of PI3Kδ. The note with it: Table 10B, inhibitory activity, unit inferred; read-out: PI3Kδ.

From patent US11311624B2, “Inhibitors of MEK/PI3K, JAK/MEK, JAK/PI3K/mTOR and MEK/PI3K/mTOR biological pathways and methods for improving lymphatic uptake, bioavailability, and solubility of therapeutic compounds” (THE REGENTS OF THE UNIVERSITY OF MICHIGAN, priority 2017, dated 2022) come the findings set out here.

PI3Kγ, sequence (P48736 whole entry, species assumed): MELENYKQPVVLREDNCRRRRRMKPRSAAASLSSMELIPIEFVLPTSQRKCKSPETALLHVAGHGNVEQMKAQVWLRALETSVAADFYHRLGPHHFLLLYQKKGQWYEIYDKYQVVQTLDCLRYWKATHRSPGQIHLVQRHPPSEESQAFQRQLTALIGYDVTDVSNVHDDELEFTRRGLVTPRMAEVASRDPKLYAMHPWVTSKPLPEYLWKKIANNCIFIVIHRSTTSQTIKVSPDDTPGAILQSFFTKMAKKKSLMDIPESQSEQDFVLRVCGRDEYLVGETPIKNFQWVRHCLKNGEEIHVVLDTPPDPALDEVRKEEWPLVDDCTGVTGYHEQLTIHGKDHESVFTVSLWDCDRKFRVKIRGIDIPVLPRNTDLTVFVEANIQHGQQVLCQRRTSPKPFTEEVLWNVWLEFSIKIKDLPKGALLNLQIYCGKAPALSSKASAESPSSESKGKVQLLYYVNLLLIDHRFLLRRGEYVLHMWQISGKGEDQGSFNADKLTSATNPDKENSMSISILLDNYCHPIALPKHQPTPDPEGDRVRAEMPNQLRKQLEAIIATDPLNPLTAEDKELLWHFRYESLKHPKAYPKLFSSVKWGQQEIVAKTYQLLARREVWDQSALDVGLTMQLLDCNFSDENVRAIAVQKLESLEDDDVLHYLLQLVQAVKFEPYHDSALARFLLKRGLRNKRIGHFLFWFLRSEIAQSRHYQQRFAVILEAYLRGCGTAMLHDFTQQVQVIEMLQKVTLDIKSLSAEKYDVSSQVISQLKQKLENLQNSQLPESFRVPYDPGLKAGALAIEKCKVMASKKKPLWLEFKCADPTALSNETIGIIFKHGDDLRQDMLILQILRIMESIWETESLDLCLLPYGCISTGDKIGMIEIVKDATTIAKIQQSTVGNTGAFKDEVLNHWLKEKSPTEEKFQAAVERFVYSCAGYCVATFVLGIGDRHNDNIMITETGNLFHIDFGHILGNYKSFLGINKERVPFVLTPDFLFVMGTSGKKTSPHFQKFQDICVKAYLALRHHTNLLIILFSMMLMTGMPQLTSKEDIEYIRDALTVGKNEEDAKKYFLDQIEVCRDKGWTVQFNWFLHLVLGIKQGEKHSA
PI3Kβ, sequence (P42338 whole entry, species assumed): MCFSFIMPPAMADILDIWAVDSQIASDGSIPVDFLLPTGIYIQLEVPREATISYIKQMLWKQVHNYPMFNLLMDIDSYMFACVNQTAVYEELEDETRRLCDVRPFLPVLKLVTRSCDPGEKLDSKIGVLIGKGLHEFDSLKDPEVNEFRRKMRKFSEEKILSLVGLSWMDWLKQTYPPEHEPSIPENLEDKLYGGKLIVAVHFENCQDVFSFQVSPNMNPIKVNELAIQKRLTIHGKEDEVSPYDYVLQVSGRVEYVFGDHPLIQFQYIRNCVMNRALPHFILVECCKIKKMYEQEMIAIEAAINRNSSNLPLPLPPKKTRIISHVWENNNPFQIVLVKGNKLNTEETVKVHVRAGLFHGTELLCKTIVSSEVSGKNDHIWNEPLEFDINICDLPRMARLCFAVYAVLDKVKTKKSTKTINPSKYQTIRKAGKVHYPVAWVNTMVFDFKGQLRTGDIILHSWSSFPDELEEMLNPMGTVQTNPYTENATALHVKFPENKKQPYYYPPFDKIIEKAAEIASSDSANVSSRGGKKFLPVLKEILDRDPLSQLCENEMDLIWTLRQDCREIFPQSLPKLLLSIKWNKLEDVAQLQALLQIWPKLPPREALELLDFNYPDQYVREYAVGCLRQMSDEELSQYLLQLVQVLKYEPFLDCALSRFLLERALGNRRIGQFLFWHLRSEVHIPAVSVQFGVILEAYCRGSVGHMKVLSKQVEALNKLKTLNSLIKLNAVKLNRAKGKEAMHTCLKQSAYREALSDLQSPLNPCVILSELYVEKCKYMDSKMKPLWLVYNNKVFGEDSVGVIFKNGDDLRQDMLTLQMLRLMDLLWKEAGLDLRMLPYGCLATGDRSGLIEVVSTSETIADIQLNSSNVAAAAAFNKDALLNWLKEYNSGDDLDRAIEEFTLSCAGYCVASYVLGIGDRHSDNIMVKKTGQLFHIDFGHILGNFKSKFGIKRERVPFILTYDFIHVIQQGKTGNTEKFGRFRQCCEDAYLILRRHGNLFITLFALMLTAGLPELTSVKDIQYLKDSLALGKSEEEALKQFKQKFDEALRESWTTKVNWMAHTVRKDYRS
PI3Kβ, sequence (P27986 whole entry partner, species assumed): as the sequence (P27986 whole entry partner, species assumed) above
PI3Kδ, sequence (O00329 whole entry, species assumed): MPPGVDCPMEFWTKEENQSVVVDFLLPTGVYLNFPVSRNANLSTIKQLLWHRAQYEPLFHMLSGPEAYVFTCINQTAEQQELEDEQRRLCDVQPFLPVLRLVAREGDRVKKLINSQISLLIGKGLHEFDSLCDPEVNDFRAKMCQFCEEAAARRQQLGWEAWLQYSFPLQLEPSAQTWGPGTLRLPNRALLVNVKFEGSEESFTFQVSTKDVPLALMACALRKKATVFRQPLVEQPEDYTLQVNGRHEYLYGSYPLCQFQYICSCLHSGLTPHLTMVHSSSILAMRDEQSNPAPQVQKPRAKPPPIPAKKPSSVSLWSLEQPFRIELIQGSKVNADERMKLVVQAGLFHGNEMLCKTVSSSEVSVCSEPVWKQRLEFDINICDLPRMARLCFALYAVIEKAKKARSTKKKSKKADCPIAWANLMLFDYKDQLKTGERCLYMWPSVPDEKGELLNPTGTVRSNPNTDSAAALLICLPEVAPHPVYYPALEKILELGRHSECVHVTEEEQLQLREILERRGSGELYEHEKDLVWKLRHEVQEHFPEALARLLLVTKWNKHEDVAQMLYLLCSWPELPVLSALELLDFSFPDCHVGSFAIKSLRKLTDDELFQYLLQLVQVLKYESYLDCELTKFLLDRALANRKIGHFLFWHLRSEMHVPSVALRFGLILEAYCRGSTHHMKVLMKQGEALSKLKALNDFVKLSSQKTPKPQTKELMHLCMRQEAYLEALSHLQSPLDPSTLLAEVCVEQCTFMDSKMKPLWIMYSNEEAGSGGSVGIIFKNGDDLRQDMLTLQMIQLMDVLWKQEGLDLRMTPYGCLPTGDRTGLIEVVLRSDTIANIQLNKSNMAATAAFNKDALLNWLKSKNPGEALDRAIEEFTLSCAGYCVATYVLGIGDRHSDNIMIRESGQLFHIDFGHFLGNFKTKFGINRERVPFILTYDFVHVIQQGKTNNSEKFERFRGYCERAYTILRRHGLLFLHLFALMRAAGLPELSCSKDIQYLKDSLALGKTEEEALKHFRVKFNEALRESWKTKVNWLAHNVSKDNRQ
PI3Kδ, sequence (P27986 whole entry partner, species assumed): as the sequence (P27986 whole entry partner, species assumed) above

Take `CN(C)C1CCN(C(=O)c2ccc(NC(=O)Nc3ccc(-c4nc(N5CCOCC5)nc(N5CCN(C(=O)CCOCCOCCOCCONC(=O)c6ccc(F)c(F)c6Nc6ccc(I)cc6F)CC5)n4)cc3)cc2)CC1` [ST-185]: the IC50 was 325 ± 78 nM on PI3Kγ; 1620 ± 442 nM at PI3Kβ; 50.4 ± 4.2 nM against mTOR; 42.3 ± 4 nM at PI3Kα; 55.3 ± 3.9 nM on PI3Kδ.
